Laboratory results from patent publication US10370438B2, “Histamine-releasing factor (HRF), HRF-receptor and methods of modulating inflammation” (LA JOLLA INSTITUTE FOR ALLERGY AND IMMUNOLOGY, priority 2010, dated 2019).
“Also recorded” adds a separate entry of the source.

How the values were obtained:
HRF/IgE binding = test: Competition ELISA of IgE binding to GST-mHRF-coated wells; parameters: species or system mouse
Procedure: To identify an inhibitor of HRF/Ig interactions to dissect the extracellular function (═HRF function as a cytokine) separate from the intracellular functions in vivo settings, the major Ig-interacting HRF sequence was studied as a specific inhibitor of HRF/Ig interactions. IgE molecules were incubated in GST-mHRF-coated wells in the presence or absence (−) of the indicated concentrations of competitors, GST-N19, GST-mHRF or mHRF-His6 for 2 hours. After incubation, bound-IgE was detected by incubation with biotinylated anti-mouse IgE mAb, followed by streptavidin-HRP. […] By contrast, none of the shorter mHRF peptides tested (residues 1-6, 1-12, 5-19, and 9-19) inhibited HRF/IgE binding. GST-N19 inhibited HRF/IgG binding as well.

C57BL/6 mice = test: OVA-induced mast cell-dependent airway inflammation model; format: in vivo, mouse
Procedure: Mice were sensitized with OVA (10 μg in 0.1 ml saline) at days 0, 7, 14, 21, 28, and 35. Sensitized mice were challenged with OVA (20 μg in 20 μl saline) at days 40, 43 and 46. Some mice were pretreated with GST, GST-N19 (400 μg in PBS), or N19 peptide (40 μg in 2% DMSO-containing PBS) 15 minutes before OVA challenge. Twenty-four hours after the last challenge, lung function in response to methacholine was tested using FlexiVent system (SCIREQ Scientific Respiratory Equipment). Mice were sacrificed and plasma, BAL fluids, and lung tissues were collected. Cells in BAL fluids were counted, and specific cell numbers were calculated after May-Giemsa staining of Cytospin preparations. Immunofluorescence microscopy was performed on membrane-permeabilized and non-permeabilized lung tissues. For staining of lung tissues by staining of H&E and periodic acid-Schiff (PAS), lung tissues were fixed with formalin and embedded in paraffin. For measurement of cytokine levels in lung tissues, lung homogenates were prepared (Oyoshi et al., Immunol. 120:303 (2007)) and cytokines quantified by ELISA. HRF in lung homogenates and plasma was SDS-PAGE and immunoblotting with anti-HRF Ab (Santa Cruz Biotechnology).
Asthma is a type 2 helper T cell-driven, chronic inflammatory lung disease (Wills-Karp, Annu Rev Immunol 17, 255 (1999)). To study HRF involvement in allergic airway inflammation, an airway inflammation model was utilized, in which mast cells are implicated in amplifying antigen-dependent chronic inflammation (Williams, et al., J Exp Med 192, 455 (Aug. 7, 2000)). C57BL/6 mice were first sensitized with OVA (10 μg) at days 0, 7, 14, 21, 28 and 35. At days 40, 43 and 46, mice were intranasally challenged with OVA (20 μg) or PBS. Some mice were intranasally pretreated with GST or GST-N19 (400 μg) before every OVA challenge. Twenty-four hours after the last challenge, mice were sacrificed and BAL fluids and lung tissues were collected. Lung tissues were homogenized.

mice = test: T cell-dependent/mast cell-independent airway inflammation model (OVA with alum); format: in vivo, mouse; conditions: mice immunized with OVA with alum and challenged with OVA
BALB/c mice = test: Aspergillus fumigatus allergen-induced airway inflammation model; format: in vivo, mouse; conditions: intranasal 200 ug/50 ul, 30 min before each immunization from the second week

Q: For “GST-N19: GST fusion protein encoding the first 19 residues of mHRF; inhibitor of HRF/Ig interactions”, which “Potency of inhibition of IgE binding relative to full-length HRF competitors” value (HRF/IgE binding) is on record?
A: Its value is “potency similar to that shown by GST-mHRF and mHRF-His6”.

Q: And the “Inhibition of IgE binding to immobilized GST-mHRF” value (HRF/IgE binding; competitor incubated 2 hours)?
A: Its value is “inhibited”.

Q: And the “Inflammatory cells, particularly eosinophils and neutrophils, in BAL fluids” value (C57BL/6 mice; 400 μg before every OVA challenge)?
A: The value was “reduced”.

Q: What about the “Inflammatory cells and goblet cell hyperplasia in the lung” value (C57BL/6 mice; H&E and PAS staining) of the same substance?
A: The value was “reduced”.

Q: And the HRF in plasma (C57BL/6 mice; OVA-immunized/OVA-challenged mice)?
A: The HRF in plasma was “reduced”.

Q: What about the Airway inflammation (C57BL/6 mice; intranasal pretreatment before each OVA challenge) of the same substance?
A: The Airway inflammation was “abrogated”.

Q: What about the “Production of IL-5 in lung tissues” value (C57BL/6 mice; lung homogenates, ELISA) of the same substance?
A: The value was “drastically decreased”.

Q: What about the “Production of IL-13 in lung tissues” value (C57BL/6 mice; lung homogenates, ELISA) of the same substance?
A: The value was “drastically decreased; also recorded: suppression”.

Q: What about the “HRF-reactive IgG levels in plasma” value (C57BL/6 mice; mouse, in vivo) of the same substance?
A: The value was “not affected”.

Q: What about the “OVA-specific IgE levels in plasma” value (C57BL/6 mice; mouse, in vivo) of the same substance?
A: Its value is “not affected”.

Q: What about the “OVA-specific IgG1 levels in plasma” value (C57BL/6 mice; mouse, in vivo) of the same substance?
A: Its value is “not affected”.

Q: What about the “OVA-specific IgG2a levels in plasma” value (C57BL/6 mice; mouse, in vivo) of the same substance?
A: Its value is “not affected”.

Q: And the “Airway hyper-responsiveness (AHR)” value (C57BL/6 mice; response to methacholine)?
A: Its value is “inhibited”.

Q: What about the Airway inflammation (mice) of the same substance?
A: The Airway inflammation was “failed to inhibit; also recorded: does not inhibit”.

Q: And the Airway inflammation (BALB/c mice)?
A: Its Airway inflammation is “efficacy of GST-N19 was confirmed; also recorded: inhibits”.
